In patent publication US12336981B2, “Compounds and compositions for the inhibition of NAMPT” (Valo Health, Inc., priority 2010, dated 2025):
Where two headings read alike, the source gives them in different places.

Columns and labels:
NAMPT = target: T1, NAMPT (Homo sapiens, UniProt P43490); experiment: Biochemical inhibition assay: NAMPT enzymatic reaction, NMN quantified by mass spectrometry; conditions: read-out: Biochem IC50
T1 construct: His tag; host or cells: E. coli
How it was run: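 Inhibition of E. coli-expressed His-tagged human NAMPT, measured as NMN formation by mass spectrometry after a 30 min room-temperature reaction containing 1 μM NAM, 100 μM PRPP and 2.5 mM ATP.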

A2780 cells = experiment: In-vitro cell proliferation assay (SRB), A2780 cells; format: cell-based; conditions: Homo sapiens, A2780, 72 h, A2780 cells, 72 hours, read-out: A2780 IC50
How it was run: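 Growth inhibition was derived from background-corrected SRB absorbance (570 nm), measured on cells fixed in 6% TCA after three days of compound treatment under 5% CO2 at 37° C.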

T1 sequence (P43490 whole entry): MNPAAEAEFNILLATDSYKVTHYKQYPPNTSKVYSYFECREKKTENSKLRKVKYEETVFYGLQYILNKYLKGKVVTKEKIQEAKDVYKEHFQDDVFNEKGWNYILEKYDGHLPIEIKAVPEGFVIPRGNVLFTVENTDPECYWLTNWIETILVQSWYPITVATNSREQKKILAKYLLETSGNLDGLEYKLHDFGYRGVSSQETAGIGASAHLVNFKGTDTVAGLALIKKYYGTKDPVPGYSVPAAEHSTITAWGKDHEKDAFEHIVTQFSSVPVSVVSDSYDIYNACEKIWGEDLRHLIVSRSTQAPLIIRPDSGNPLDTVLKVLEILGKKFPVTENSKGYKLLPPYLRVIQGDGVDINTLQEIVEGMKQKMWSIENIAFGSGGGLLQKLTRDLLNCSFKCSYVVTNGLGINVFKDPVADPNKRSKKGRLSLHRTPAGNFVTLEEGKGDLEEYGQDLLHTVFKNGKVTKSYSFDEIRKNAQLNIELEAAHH

SMILES	IC50 (NAMPT; NAMPT enzymatic reaction)	IC50 (A2780 cells; SRB)	IC50 (NAMPT; NAMPT enzymatic assay)	IC50 (A2780 cells; SRB assay)
COc1ccc(C)cc1S(=O)(=O)c1ccc(CNC(=O)c2cnc3[nH]ncc3c2)cc1 [N-({4-[(2-methoxy-5-methylbenzene)sulfonyl]phenyl}methyl)-1H-pyrazolo[3,4-b]pyridine-5-carboxamide]	56.3 nM	24.4 nM		
CN(C)Cc1cccc(S(=O)(=O)c2ccc(CNC(=O)c3cc4ccncc4o3)cc2)c1		6.2 nM	4.7 nM	
O=C(NCc1ccc(S(=O)(=O)c2cc(F)cc(Cl)c2)cc1)c1ccc2nccn2c1	3.9 nM	0.3 nM		
CN(C)C(=O)c1ccccc1S(=O)(=O)c1ccc(CNC(=O)c2cc3cnccc3[nH]2)cc1 [N-[(4-{[2-(dimethylcarbamoyl)benzene]sulfonyl}phenyl)methyl]-1H-pyrrolo[3,2-c]pyridine-2-carboxamide]	951 nM	100 to 1000 nM	100 to 1000 nM	484 nM
CC(=O)c1ccc(S(=O)(=O)c2ccc(CNC(=O)c3cnc4nccn4c3)cc2)cc1	5.2 nM	6.5 nM		
CNS(=O)(=O)c1ccccc1S(=O)(=O)c1ccc(CNC(=O)c2cnc3[nH]ncc3c2)cc1 [N-[(4-{[2-(methylsulfamoyl)benzene]sulfonyl}phenyl)methyl]-1H-pyrazolo[3,4-b]pyridine-5-carboxamide]		> 10000 nM	> 167 nM	
COc1ccc(OC)c(S(=O)(=O)c2ccc(CNC(=O)c3ccc4nccn4c3)cc2)c1 [N-({4-[(2,5-dimethoxybenzene)sulfonyl]phenyl}methyl)imidazo[1,2-a]pyridine-6-carboxamide]	20.2 nM	12.8 nM		
Cc1c(Cl)cccc1S(=O)(=O)c1ccc(CNC(=O)c2cc3ccncc3o2)cc1	2.6 nM	1.6 nM		
COc1ccc(F)cc1S(=O)(=O)c1ccc(CNC(=O)c2cnc3[nH]ncc3c2)cc1	39 nM	15.1 nM		
COc1cccc(S(=O)(=O)c2ccc(CNC(=O)c3ccc4nccn4c3)cc2)c1OC [N-({4-[(2,3-dimethoxybenzene)sulfonyl]phenyl}methyl)imidazo[1,2-a]pyridine-6-carboxamide]	68.7 nM	24.9 nM		
CN(C)C(=O)c1ccccc1S(=O)(=O)c1ccc(CNC(=O)c2ccc3nccn3c2)cc1 [N-[(4-{[2-(dimethylcarbamoyl)benzene]sulfonyl}phenyl)methyl]imidazo[1,2-a]pyridine-6-carboxamide]		100 to 1000 nM	> 167 nM	
O=C(NCc1ccc(S(=O)(=O)N2CCCCC2)cc1)c1cn2[nH]ccc2n1 [N-{[4-(piperidine-1-sulfonyl)phenyl]methyl}-1H-imidazo[1,2-b]pyrazole-5-carboxamide]	0.8 nM			11 nM
CCCCOc1ccc(S(=O)(=O)c2ccc(CNC(=O)c3ccc4nccn4c3)cc2)cc1Cl	4.1 nM	7.6 nM		
CC(C)n1cc(S(=O)(=O)c2ccc(CNC(=O)c3ccc4nccn4c3)cc2)cn1 [N-({4-[1-(propan-2-yl)-1H-pyrazole-4-sulfonyl]phenyl}methyl)imidazo[1,2-a]pyridine-6-carboxamide]		2.7 nM	8 nM	
CN(C)Cc1cccc(S(=O)(=O)c2ccc(CNC(=O)c3cnc4nccn4c3)cc2)c1		66 nM	4.4 nM	
Cc1cc(-n2cccn2)ccc1S(=O)(=O)c1ccc(CNC(=O)c2ccc3nccn3c2)cc1 [N-[(4-{[2-methyl-4-(1H-pyrazol-1-yl)benzene]sulfonyl}phenyl)methyl]imidazo[1,2-a]pyridine-6-carboxamide]		3.6 nM	7.99 nM	
O=C(NCc1ccc(S(=O)(=O)c2cncc(F)c2)cc1)c1cc2ccncc2s1 [N-{[4-(5-fluoropyridine-3-sulfonyl)phenyl]methyl}thieno[2,3-c]pyridine-2-carboxamide]		6.4 nM	9.7 nM	
CN1CCN(c2ccc(S(=O)(=O)c3ccc(CNC(=O)c4ccc5nccn5c4)cc3)cc2)CC1		0.2 nM	1 nM	
O=C(NCc1ccc(S(=O)(=O)c2ccc(F)c(OCC(F)(F)F)c2)cc1)c1cnc2nccn2c1		6.5 nM	2.4 nM	
O=C(NCc1ccc(S(=O)(=O)c2cccc(F)c2Cl)cc1)c1cnc2[nH]ncc2c1	73.6 nM	100 to 1000 nM		
O=C(NCc1ccc(S(=O)(=O)c2ccc(C(F)(F)F)c(F)c2)cc1)c1cc2ccncc2s1		7.2 nM	8.8 nM	
Cc1cnc(S(=O)(=O)c2ccc(CNC(=O)c3cc4ccncc4o3)cc2)n1C [N-{[4-(1,5-dimethyl-1H-imidazole-2-sulfonyl)phenyl]methyl}furo[2,3-c]pyridine-2-carboxamide]		65.9 nM	57.4 nM	
CC(C)c1cccc(S(=O)(=O)c2ccc(CNC(=O)c3cnc4nccn4c3)cc2)c1		5.3 nM	2.9 nM	
COc1cc(C(F)(F)F)ccc1S(=O)(=O)c1ccc(CNC(=O)c2cnc3[nH]ncc3c2)cc1		28.1 nM	120 nM	

SMILES	IC50 (NAMPT; NAMPT enzymatic reaction)	IC50 (A2780 cells; SRB)	IC50 (NAMPT; NAMPT enzymatic assay)	IC50 (A2780 cells; SRB assay)
O=C(NCc1cccc(S(=O)(=O)c2ccccc2)c1)c1cc2cnccc2[nH]1 [N-{[3-(benzenesulfonyl)phenyl]methyl}-1H-pyrrolo[3,2-c]pyridine-2-carboxamide]	> 30000 nM			> 30000 nM
O=C(NCc1ccc(S(=O)(=O)c2cncc3ccccc23)cc1)c1cnc2[nH]ncc2c1 [N-{[4-(isoquinoline-4-sulfonyl)phenyl]methyl}-1H-pyrazolo[3,4-b]pyridine-5-carboxamide]		2.5 nM	3.7 nM	
O=C(NCc1ccc(S(=O)(=O)c2ccc(C(F)(F)F)c(Cl)c2)cc1)c1cnc2nccn2c1		1.8 nM	2.8 nM	
Cc1cc(S(=O)(=O)c2ccc(CNC(=O)c3cnc4nccn4c3)cc2)c(C)cc1F	5.8 nM	29.4 nM		
O=C(NCc1ccc(S(=O)(=O)c2ccccc2Cl)cc1)c1cc2cnccc2[nH]1 [N-({4-[(2-chlorobenzene)sulfonyl]phenyl}methyl)-1H-pyrrolo[3,2-c]pyridine-2-carboxamide]	6 nM			117 nM
CC(NC(=O)c1cc2cnccc2[nH]1)c1ccc(S(=O)(=O)N2CCCCC2)cc1 (stereo not drawn) [N-{1-[4-(piperidine-1-sulfonyl)phenyl]ethyl}-1H-pyrrolo[3,2-c]pyridine-2-carboxamide]	20 nM			7 nM
O=C(NCc1ccc(S(=O)(=O)c2ccc3nc(C(F)(F)F)cn3c2)cc1)c1cnc2[nH]ncc2c1 [N-({4-[2-(trifluoromethyl)imidazo[1,2-a]pyridine-6-sulfonyl]phenyl}methyl)-1H-pyrazolo[3,4-b]pyridine-5-carboxamide]		33 nM	49.7 nM	
Cn1c(S(=O)(=O)c2ccc(CNC(=O)c3cnc4[nH]ncc4c3)cc2)cc2ccccc21 [N-{[4-(1-methyl-1H-indole-2-sulfonyl)phenyl]methyl}-1H-pyrazolo[3,4-b]pyridine-5-carboxamide]		13.2 nM	14 nM	
Cc1cc(C)c(S(=O)(=O)c2ccc(CNC(=O)c3cnc4[nH]ncc4c3)cc2)c(C)c1 [N-({4-[(2,4,6-trimethylbenzene)sulfonyl]phenyl}methyl)-1H-pyrazolo[3,4-b]pyridine-5-carboxamide]	136 nM	100 to 1000 nM		
O=C(NCc1ccc(S(=O)(=O)c2cccc3c2OCO3)cc1)c1cc2cnccc2[nH]1 [N-{[4-(2H-1,3-benzodioxole-4-sulfonyl)phenyl]methyl}-1H-pyrrolo[3,2-c]pyridine-2-carboxamide]		11.8 nM	20.5 nM	
CSc1ccc(S(=O)(=O)c2ccc(CNC(=O)c3cc4ccncc4s3)cc2)cc1F		2 nM	2.2 nM	
Cc1cccc(S(=O)(=O)c2ccc(CNC(=O)c3cc4ccncc4o3)cc2)c1 [N-({4-[(3-methylbenzene)sulfonyl]phenyl}methyl)furo[2,3-c]pyridine-2-carboxamide]	2.3 nM	5.3 nM		
O=C(NCc1ccc(S(=O)(=O)c2ccccc2)cc1)c1ccc2ncccc2n1 [N-{[4-(benzenesulfonyl)phenyl]methyl}-1,5-naphthyridine-2-carboxamide]	875 nM			> 10000 nM
O=C(NCc1ccc(S(=O)(=O)c2ccc(-n3cccn3)cc2)cc1)c1cnc2[nH]ncc2c1		7.5 nM	12.3 nM	
Cn1cc2ccc(S(=O)(=O)c3ccc(CNC(=O)c4cnc5nccn5c4)cc3)cc2n1 [N-{[4-(2-methyl-2H-indazole-6-sulfonyl)phenyl]methyl}imidazo[1,2-a]pyrimidine-6-carboxamide]		6.1 nM	1.2 nM	
COc1ccc2cc(S(=O)(=O)c3ccc(CNC(=O)c4cc5ccncc5o4)cc3)ccc2c1 [N-{[4-(6-methoxynaphthalene-2-sulfonyl)phenyl]methyl}furo[2,3-c]pyridine-2-carboxamide]		3.6 nM	3 nM	
COc1c(Cl)ccc(S(=O)(=O)c2ccc(CNC(=O)c3cc4ccncc4o3)cc2)c1Cl	17.7 nM	16.2 nM		
O=C(NCc1ccc(S(=O)(=O)c2c(Cl)cccc2Cl)cc1)c1cc2ccncc2o1	12.4 nM	60.1 nM		
CCS(=O)(=O)c1cccc(S(=O)(=O)c2ccc(CNC(=O)c3ccc4nccn4c3)cc2)c1		6 nM	13.5 nM	
COc1ccc(S(=O)(=O)c2ccc(CNC(=O)c3cc4ccncc4o3)cc2)cc1Cl [N-({4-[(3-chloro-4-methoxybenzene)sulfonyl]phenyl}methyl)furo[2,3-c]pyridine-2-carboxamide]	7.3 nM	1.8 nM		
O=C(NCc1ccc(S(=O)(=O)c2cc(F)cc(N3CCCC3)c2)cc1)c1cnc2nccn2c1		2 nM	3.1 nM	
COc1ccc(S(=O)(=O)c2ccc(CNC(=O)c3cc4cnccc4[nH]3)cc2)c(Cl)c1	9.3 nM	14.5 nM		
COc1cc(OC)cc(S(=O)(=O)c2ccc(CNC(=O)c3cc4ccncc4o3)cc2)c1	2.7 nM	1.7 nM		
